Assay: molar heat capacity at constant pressure
Details: 101.33 kPa, Crystal 3, Small (less than 1 g) adiabatic calorimetry

Cl.NC12CC3CC(CC(C3)C1)C2 [1-aminoadamantane hydrochloride]
Details | molar heat capacity at constant pressure [J/K/mol]
5 K | 0.585
5.01 K | 0.5801
5.25 K | 0.6835
5.49 K | 0.7946
5.75 K | 0.916
6 K | 1.051
6.3 K | 1.22
6.62 K | 1.42
6.95 K | 1.642
7.29 K | 1.891
7.64 K | 2.153
7.99 K | 2.437
8.34 K | 2.747
8.7 K | 3.078
9.06 K | 3.426
9.43 K | 3.794
9.79 K | 4.174
10 K | 4.396
10.17 K | 4.569
10.64 K | 5.116
11.22 K | 5.781
11.81 K | 6.479
12.4 K | 7.208
13 K | 7.971
13.6 K | 8.754
14.21 K | 9.533
14.82 K | 10.38
15 K | 10.64
15.54 K | 11.36
16.37 K | 12.56
17.21 K | 13.72
18.05 K | 14.85
18.89 K | 15.98
19.74 K | 17.1
20 K | 17.48
20.86 K | 18.62
22.27 K | 20.49
23.7 K | 22.36
25 K | 24
25.12 K | 24.15
26.55 K | 25.89
27.96 K | 27.53
29.45 K | 29.22
30 K | 29.84
31.06 K | 31
32.82 K | 32.84
34.59 K | 34.6
35 K | 34.98
36.37 K | 36.26
38.14 K | 37.9
39.92 K | 39.49
40 K | 39.56
41.79 K | 41.08
43.77 K | 42.73
45 K | 43.74
45.75 K | 44.38
47.72 K | 45.9
49.71 K | 47.41
50 K | 47.63
51.69 K | 48.89
53.68 K | 50.26
55.67 K | 51.64
57.67 K | 52.99
59.67 K | 54.32
60 K | 54.53
61.67 K | 55.65
63.67 K | 56.94
65.68 K | 58.17
67.69 K | 59.45
69.7 K | 60.69
70 K | 60.92
71.71 K | 62
73.72 K | 63.24
75.74 K | 64.48
77.75 K | 65.74
78.45 K | 66.2
79.78 K | 66.97
80 K | 67.11
80.56 K | 67.47
81.8 K | 68.23
82.48 K | 68.62
83.83 K | 69.44
84.4 K | 69.79
86.32 K | 71.01
88.24 K | 72.23
90 K | 73.32
90.17 K | 73.44
92.09 K | 74.67
94.02 K | 75.9
95.95 K | 77.18
97.89 K | 78.44
99.83 K | 79.74
100 K | 79.81
100.61 K | 80.3
101.77 K | 81.04
102.13 K | 81.29
103.66 K | 82.26
103.71 K | 82.35
105.19 K | 83.26
105.66 K | 83.7
106.71 K | 84.46
107.61 K | 85.07
108.24 K | 85.55
109.57 K | 86.53
109.77 K | 86.68
110 K | 86.83
110.61 K | 87.3
111.3 K | 87.82
111.52 K | 88.04
111.99 K | 88.23
112.83 K | 89.22
113 K | 89.28
113.48 K | 89.74
114.01 K | 90.15
114.36 K | 90.6
115.02 K | 91.42
115.44 K | 92
115.56 K | 91.67
115.89 K | 92.64
116.03 K | 92.78
116.09 K | 92.4
116.58 K | 93.36
117.03 K | 94.87
117.07 K | 94.53
117.39 K | 96.19
117.4 K | 96.04
117.56 K | 95.93

Source: the NIST ThermoML archive (doi:10.1021/acs.jced.7b00107)
